The target of experiment [1] is T1, CETP (Homo sapiens, UniProt P11597).
T1 construct: The donor lipoprotein obtained above was added to plasma of healthy subject; from tissue; host or cells: whole plasma of healthy subject
T1 sequence (P11597 18-493): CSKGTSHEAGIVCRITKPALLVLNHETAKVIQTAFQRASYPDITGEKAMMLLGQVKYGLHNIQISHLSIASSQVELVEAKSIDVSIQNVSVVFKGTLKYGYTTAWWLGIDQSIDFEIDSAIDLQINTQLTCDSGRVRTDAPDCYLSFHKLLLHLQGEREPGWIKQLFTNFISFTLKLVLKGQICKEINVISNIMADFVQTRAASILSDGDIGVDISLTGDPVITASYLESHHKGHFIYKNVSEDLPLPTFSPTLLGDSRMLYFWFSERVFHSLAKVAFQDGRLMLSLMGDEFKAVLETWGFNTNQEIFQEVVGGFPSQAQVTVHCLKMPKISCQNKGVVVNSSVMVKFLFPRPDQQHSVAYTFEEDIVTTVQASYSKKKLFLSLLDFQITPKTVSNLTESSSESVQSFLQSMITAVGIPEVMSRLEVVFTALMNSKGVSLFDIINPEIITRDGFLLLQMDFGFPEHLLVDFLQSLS
Description: Inhibitory effect in vitro on CETP activity in total plasma. The settings on record: plasma of healthy subject with [3H]CE-HDL3, 37° C., 4 hr; average values. The format is biochemical. In short, it runs like this:
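Healthy-donor plasma spiked with [3H]cholesteryl ester-labelled HDL3 (1,000 dpm/μL) was incubated with compound (DMF vehicle) for 4 hr at 37 °C or 4 °C. HDL was separated by MgCl2/dextran sulfate precipitation and supernatant radioactivity counted. IC50 is the concentration giving 50% inhibition of CETP activity.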

In experiment [2] the test system is CETP. Description: Inhibitory effect exo vivo on CETP activity in total plasma of normal hamster. The settings on record: blood taken 2 hr after administration, average values. The procedure: Potassium bromide (KBr) was added to plasma (40 mL) of healthy subject and the mixture was adjusted to have a specific density d=1.125 g/mL. The mixture was subjected to density gradient centrifugation (227,000×g, 4° C., 17 hr) and a fraction showing a specific density of d>1.125 g/mL (HDL3 fraction) was harvested. The obtained fraction was dialyzed against PBS solution [10 mmol/L Na2HPO4; 10 mmol/L NaH2PO4; 0.15 mol/L NaCl; […] (pH 7.4)]. Then, tritium-labeled cholesterol (37 MBq) was dissolved in 95% ethanol, gradually added to the above-mentioned HDL3 fraction with stirring and incubated at 37° C. for 18 hr. [By this operation, tritium-labeled cholesterol was esterified by the action of lecithin acyl transferase (LCAT) present on the HDL3 surface and taken up into HDL3 as tritium-labeled cholesteryl ester ([^3H]CE)]. After incubation, KBr was added, the mixture was adjusted to have a specific density d=1.21 g/mL, subjected to density gradient centrifugation (227,000×g, 4° C., 17 hr) and a fraction of specific density […] was harvested. The obtained fraction was dialyzed against the aforementioned PBS solution to give HDL3 incorporating [^3H]CE ([^3H]CE-HDL3, specific density: 1.125<d<1.21, specific activity: 10,000 dpm/μL), which was used as a donor lipoprotein.
The compound of the present invention was suspended in 0.5% methyl cellulose solution and orally administered once to a healthy hamster with a plastic gavage needle. Blood was taken at 2 or 4 hr after the administration and CETP activity in plasma was measured according to the following method.
The donor lipoprotein obtained above was added to hamster plasma (100 μL) to prepare [^3H]CE-HDL3-containing plasma (ca. 1,000 dpm/μL). The [^3H]CE-HDL3-containing plasma was dispensed to two microtubes by 25 μL each, and one was incubated at 37° C. and the other was incubated at 4° C. for 4 hr each. After ice-cooling, TBS solution (50 μl) containing 1 mol/L magnesium chloride and 2% dextran sulfate was added to each microtube and the mixture was thoroughly stirred. After keeping at […] for 30 min, the mixture was centrifuged (10,000×g, 4° C., 20 min), and the radioactivity in the obtained supernatant (HDL fraction) was measured with a liquid scintillation counter. The radioactivity of the [^3H]CE-HDL3-containing plasma was measured with a liquid scintillation counter, and taken as the total radioactivity. The transfer rate of [^3H]CE was calculated from the following formula using the total radioactivity (Total count), radioactivity by 37° C. incubation (37° C. count) and radioactivity by 4° C. incubation (4° C. count) of the sample of each individual and taken as the CETP activity. CETP activity(transfer ratio (%))={[(4° C. count)−(37° C. count)]/(Total count)}×100
The CETP activity inhibitory ratio of each compound administration group based on the CETP activity of the solvent administration group as 100% was calculated from the following formula and expressed in %.
CETP activity inhibitory ratio (%)=100−[(CETP activity of each compound administration group)/(CETP activity of solvent administration group)×100]

Usually IC50 stands for the midpoint of a concentration-inhibition curve. A low value points to greater potency. `CCN(CCCCC(=O)OC)c1cc2c(cc1CN(Cc1cc(C(F)(F)F)cc(C(F)(F)F)c1)c1nnn(C)n1)CCC2.Cl` [Example 35, methyl 5-[N-(6-{[N′-[3,5-bis(trifluoromethyl)benzyl]-N′-(2-methyl-2H-tetrazol-5-yl)amino]methyl}indan-5-yl)-N-ethylamino]pentanoate hydrochloride]: the 50% inhibitory concentration (IC50) in experiment [1] was found to be 350 nM. Further, in experiment [2] (single oral dose 30 mg/kg), the “CETP activity (%) 2 (hr later)” value was found to be 37.8%.
`CCN(CCCCC(=O)OC)c1cc2c(cc1CN(Cc1cc(C(F)(F)F)cc(C(F)(F)F)c1)c1ccn(C)n1)CCC2.Cl` [Example 37, methyl 5-[N-(6-[{N′-[3,5-bis(trifluoromethyl)benzyl]-N′-(1-methyl-1H-pyrazol-3-yl)amino]methyl}indan-5-yl)-N-ethylamino]pentanoate hydrochloride] came in with an IC50 in experiment [1] of 800 nM. Also, the “CETP activity (%) 2 (hr later)” value in experiment [2] (single oral dose 30 mg/kg) is given as 45.4%.
`CCN(CCCCC(=O)O)c1cc2c(cc1CN(Cc1cc(C(F)(F)F)cc(C(F)(F)F)c1)c1nnn(C)n1)CCC2.Cl` [Example 38, 5-[N-(6-{[N′-[3,5-bis(trifluoromethyl)benzyl]-N′-(2-methyl-2H-tetrazol-5-yl)amino]methyl}indan-5-yl)-N-ethylamino]pentanoic acid hydrochloride]: the half-maximal inhibitory concentration (IC50) in experiment [1] was found to be 470 nM. Besides, in experiment [2] (single oral dose 30 mg/kg), the “CETP activity (%) 2 (hr later)” value was determined as 79.4%.
Taken in the same sequence, the figures for `CCN(CCCCC(=O)O)c1cc2c(cc1CN(Cc1cc(C#N)cc(C(F)(F)F)c1)c1nnn(C)n1)CCC2.Cl` [Example 39, 5-[N-(6-{[N′-(3-cyano-5-trifluoromethylbenzyl)-N′-(2-methyl-2H-tetrazol-5-yl)amino]methyl}indan-5-yl)-N-ethylamino]pentanoic acid hydrochloride] were 880 nM and 49.6%.
The corresponding values for `CCN(CCCCC(=O)O)c1cc2c(cc1CN(Cc1cc(C(F)(F)F)cc(C(F)(F)F)c1)c1cc(C)no1)CCC2.Cl` [Example 40, 5-[N-(6-{[N′-[3,5-bis(trifluoromethyl)benzyl]-N′-(3-methylisoxazol-5-yl)amino]methyl}indan-5-yl)-N-ethylamino]pentanoic acid hydrochloride] are 390 nM and 59.5%.
Taken in the same sequence, the figures for `CCN(CCCCC(=O)O)c1cc2c(cc1CN(Cc1cc(C(F)(F)F)cc(C(F)(F)F)c1)c1ccn(C)n1)CCC2.Cl` [Example 41, 5-[N-(6-{[N′-[3,5-bis(trifluoromethyl)benzyl]-N′-(1-methyl-1H-pyrazol-3-yl)amino]methyl}indan-5-yl)-N-ethylamino]pentanoic acid hydrochloride] were 510 nM and 36.0%.
Compound `CCN(CCCCC(=O)O)c1ccc(OC(F)(F)F)cc1CN(Cc1cc(C(F)(F)F)cc(C(F)(F)F)c1)c1nnn(C)n1.Cl` [Example 89, 5-[N-(2-{[N′-[3,5-bis(trifluoromethyl)benzyl]-N′-(2-methyl-2H-tetrazol-5-yl)amino]methyl}-4-trifluoromethoxyphenyl)-N-ethylamino]pentanoic acid hydrochloride] had an IC50 in experiment [1] of 690 nM. The “CETP activity (%) 2 (hr later)” value in experiment [2] (single oral dose 10 mg/kg) was determined as 77.7%.
The corresponding values for `CCN(CCCCCC(=O)O)c1cc2c(cc1CN(Cc1cc(C(F)(F)F)cc(C(F)(F)F)c1)c1nnn(C)n1)CCC2.Cl` [Example 91, 6-[N-(6-{[N′-[3,5-bis(trifluoromethyl)benzyl]-N′-(2-methyl-2H-tetrazol-5-yl)amino]methyl}indan-5-yl)-N-ethylamino]hexanoic acid hydrochloride] are 560 nM and 44.7%.
The corresponding values for `CCN(CCC(C)(C)CC(=O)O)c1cc2c(cc1CN(Cc1cc(C(F)(F)F)cc(C(F)(F)F)c1)c1nnn(C)n1)CCC2.Cl` [Example 92, 5-[N-(6-{[N′-[3,5-bis(trifluoromethyl)benzyl]-N′-(2-methyl-2H-tetrazol-5-yl)amino]methyl}indan-5-yl)-N-ethylamino]-3,3-dimethylpentanoic acid hydrochloride] are 190 nM and 46.9%.
Taken in the same sequence, the figures for `CCN(C[C@H]1CC[C@H](C(=O)O)CC1)c1ccc(C(F)(F)F)cc1CN(Cc1cc(C(F)(F)F)cc(C(F)(F)F)c1)c1nnn(C)n1.Cl` [Example 96, trans-4-{[N-(2-{[N′-[3,5-bis(trifluoromethyl)benzyl]-N′-(2-methyl-2H-tetrazol-5-yl)amino]methyl}-4-trifluoromethylphenyl)-N-ethylamino]methyl}cyclohexanecarboxylic acid hydrochloride] were 310 nM and 41.1%.
Compound `CCN(C[C@H]1CC[C@H](C(=O)O)CC1)c1ccc(OC(F)(F)F)cc1CN(Cc1cc(C(F)(F)F)cc(C(F)(F)F)c1)c1nnn(C)n1.Cl` [Example 98, trans-4-[{N-(2-{[N′-[3,5-bis(trifluoromethyl)benzyl]-N′-(2-methyl-2H-tetrazol-5-yl)amino]methyl}-4-trifluoromethoxyphenyl)-N-ethylamino]methyl}cyclohexanecarboxylic acid hydrochloride] returned an IC50 in experiment [1] of 300 nM. Also, in experiment [2] (single oral dose 10 mg/kg), the “CETP activity (%) 2 (hr later)” value is given as 43.3%.
The corresponding values for `CCN(CCC(C)(C)CC(=O)O)c1ccc(OC(F)(F)F)cc1CN(Cc1cc(C(F)(F)F)cc(C(F)(F)F)c1)c1ccn(C)n1.Cl` [Example 107, 5-[N-(2-{[N′-[3,5-bis(trifluoromethyl)benzyl]-N′-(1-methyl-1H-pyrazol-3-yl)amino]methyl}-4-trifluoromethoxyphenyl)-N-ethylamino]-3,3-dimethylpentanoic acid hydrochloride] are 560 nM and 41.9%.
The corresponding values for `CCN(CCC(C)(C)CC(=O)O)c1ccc(OC(F)(F)F)cc1CN(Cc1cc(C(F)(F)F)cc(C(F)(F)F)c1)c1noc(C)n1.Cl` [Example 108, 5-[N-(2-{[N′-[3,5-bis(trifluoromethyl)benzyl]-N′-(5-methyl-[1,2,4]oxadiazol-3-yl)amino]methyl}-4-trifluoromethoxyphenyl)-N-ethylamino]-3,3-dimethylpentanoic acid hydrochloride] are 250 nM and 53.8%.
Taken in the same sequence, the figures for `CCN(C[C@H]1CC[C@H](C(=O)O)CC1)c1ccc(OC(F)(F)F)cc1CN(Cc1cc(C(F)(F)F)cc(C(F)(F)F)c1)c1noc(C)n1.Cl` [Example 109, trans-4-{[N-(2-{[N′-[3,5-bis(trifluoromethyl)benzyl]-N′-(5-methyl-[1,2,4]oxadiazol-3-yl)amino]methyl}-4-trifluoromethoxyphenyl)-N-ethylamino]methyl}cyclohexanecarboxylic acid hydrochloride] were 160 nM and 42.8%.

The values are drawn from patent publication US7807701B2, “Dibenzylamine compounds and pharmaceutical use thereof” (Japan Tobacco Inc., priority 2002, dated 2010).
